# Laboratory results from patent publication US10363230B2, “6-shogaol derivatives and activities thereof” (North Carolina Agricultural and Technical State University, priority 2017, dated 2019).
# “Also recorded” adds a separate entry of the source.
# How the values were obtained:
# heme oxygenase-1 (HO-1) = experiment: Western blotting of HO-1 expression in CCD 841 CoN cells; assay type: cell-based, human
# Protocol: Human normal colonic epithelial cells (CCD 841 CoN) were grown in Eagle's Minimum Essential Medium with 10% fetal bovine serum and 1% penicillin/streptomycin, and maintained at 37° C. in a 100% humidified atmosphere of 5% CO2 and 95% air. Fresh growth medium was added to the cells every two days until confluent. Cells were planted in 145×20 mm flat-bottomed tissue culture dishes and growth to 70-80% confluence and then treated with compound 27 for various doses and time points. At the end of incubation period, cell lysates were prepared in ice-cold Cell Lysis Buffer (Cell Signaling, Danvers, Mass., United States of America) with 1% protease inhibitor cocktail and 1% phenylmethylsulfonyl fluoride (Sigma, St. Louis, Mo., United States of America). Protein concentrations were measured using BCA Protein Assay Kit (Thermo Scientific, Rockford, Ill., United States of America). […] The bound complexes were detected with SuperSignal Chemiluminescent Substract (Thermo Scientific, Rockford, Ill., United States of America). The immunoblot bands were quantified by densitometry analysis, and the ratio to β-actin was calculated and presented.
# [1] = Cysteine conjugates in mouse urine after oral gavage (LC/MS); assay type: in vivo; conditions: oral gavage 200 mg/kg, urine collected in 24 h
# Protocol: LC/MS analysis was carried out with a Thermo-Finnigan Spectra System, which consisted of an Accela high speed MS pump, an Accela refrigerated autosampler, and an LCQ Fleet ion trap mass detector (Thermo Electron, San Jose, Calif., United States of America) incorporated with an electrospray ionization (ESI) interface. A Gemini-NX C18 column (150 mm×4.6 mm i.d., 5 μm; Phenomenex, Torrance, Calif., United States of America) was used for separation at a flow rate of 0.3 mL/min. The column was eluted with 100% A (5% aqueous methanol with 0.2% formic acid) for 1 min, followed by linear increases in B (95% aqueous methanol with 0.2% formic acid) to 55% from 1 to 4 min, to 85% from 4 to 25 min, then to 100% B from 25 to 30 min, and then with 100% B from 30 to 35 min. The column was then re-equilibrated with 100% A for 5 min. The LC eluent was introduced into the ESI interface. The positive ion polarity mode was set for the ESI source with the voltage on the ESI interface maintained at approximately 4.6 kV. Nitrogen gas was used as the sheath gas and auxiliary gas. […] The mass range was measured from 100 to 800 m/z. […]
# Enzymatic deconjugation of mouse urine was performed as described previously with slight modifications. […] The resulting suspension was centrifuged at 17,000 g for 5 min, and 10 μL of supernatant was analyzed directly by LC/MS.
# [2] = Biotransformation of xenobiotics in zebrafish embryos (LC/MS); assay type: in vivo; conditions: 5 μM in incubation medium, 8 hpf to 24 hpf
# Protocol: Fifty zebrafish embryos at the 8 hour-post-fertilization (hpf) stage were incubated at 28.5° C. in 0.3× Danieau's solution (19.3 mM NaCl, 0.23 mM KCl, 0.13 mM MgSO4, 0.2 mM Ca(NO3)2, 1.7 mM HEPES, pH 7.0) with or without 5 μM 18 and 25-27, respectively. At 24 hpf, embryos were dechorionated manually and the chorions were carefully removed one by one from the culture medium. The zebrafish embryos were harvested and kept at −80° C. till analyzed by LC/MS.
# 200 μL Sodium acetate buffer solution (pH 5.0) was added to 50 zebrafish embryos. Samples were homogenized for 90 s by an Omni Bead Ruptor Homogenizer (Kennesaw, Ga., United States of America). 10 μL 10% ascorbic acid and 300 μL sodium acetate buffer were added to the homogenates. The mixture was incubated in the presence of β-glucuronidase (250 U) and sulfatase (3 U) at 37° C. for 45 min, and then 600 μL MeOH with 1% acetic acid was added. The resulting mixture was vortexed for 30 s and then centrifuged at 17000 g for 10 min. The supernatant was removed and evaporated under a gentle stream of nitrogen. The residue was reconstituted in 150 μL 90% MeOH with 0.2% acetic acid (AA), and 10 μL was analyzed directly by LC/MS.
# LC/MS analysis was carried out with a Thermo-Finnigan Spectra System, which consisted of an Accela high speed MS pump, an Accela refrigerated autosampler, and an LCQ Fleet ion trap mass detector (Thermo Electron, San Jose, Calif., United States of America) incorporated with an electrospray ionization (ESI) interface. A Gemini-NX C18 column (150 mm×4.6 mm i.d., 5 μm; Phenomenex, Torrance, Calif., United States of America) was used for separation at a flow rate of 0.3 mL/min. The column was eluted with 100% A (5% aqueous methanol with 0.2% formic acid) for 1 min, followed by linear increases in B (95% aqueous methanol with 0.2% formic acid) to 55% from 1 to 4 min, to 85% from 4 to 25 min, then to 100% B from 25 to 30 min, and then with 100% B from 30 to 35 min. The column was then re-equilibrated with 100% A for 5 min. The LC eluent was introduced into the ESI interface. The positive ion polarity mode was set for the ESI source with the voltage on the ESI interface maintained at approximately 4.6 kV. Nitrogen gas was used as the sheath gas and auxiliary gas. Optimized source parameters, including capillary temperature (260° C.), sheath gas flow rate (31 arbitrary units), auxiliary gas flow rate (16 units), tube lens (34 V), and capillary voltage 9 V, were tuned using authentic samples. The collision-induced dissociation (CID) was conducted with an isolation width 2 Da and normalized collision energy of 35 for MS^2. The mass range was measured from 100 to 800 m/z. Data acquisition was performed with Xcalibur version 2.0 (Thermo Electron, San Jose, Calif., United States of America).
structure (smiles),measurement,setting,value
CCCCCCCC(=O)/C=C/c1ccc(O)c(O)c1 [Compound 27],"HO-1 protein expression, time dependence","heme oxygenase-1 (HO-1); CCD 841 CoN cells, 10 μM for 3, 6, 12 and 24 h, vs control, p<0.05 for all time points",significantly increased HO-1 expression; also recorded: increased HO-1 expression in a time-dependent manner
same,"HO-1 protein expression, dose dependence","heme oxygenase-1 (HO-1); CCD 841 CoN cells, 5, 10 and 20 μM for 24 h, vs untreated control, p<0.05 for all concentrations",significantly increased HO-1 protein expression; also recorded: increased HO-1 expression in a dose-dependent manner
same,Cysteine conjugates (metabolites) detected in mouse urine,[1],"conjugate 36 and its reduced form 36a, three additional conjugates 37, 37a, and 37b"
same,Cysteine conjugates (metabolites) detected in zebrafish embryos,[2],"four cysteine conjugates 36, 36a, 37, and 37b"
